Source: patent publication US10207023B2, “Antibacterial calcium-based materials” (NATIONAL CHENG KUNG UNIVERSITY, priority 2012, dated 2019)

How the values were obtained:
[1] = tested on: staphylococcus aureus (SA); test: Disk diffusion assay (antibacterial zone); format: cell-based; settings: for antibacterial behavior: commercially pure lithium compounds, dry- or wet-molded 3 mm high, 6 mm dia. cylinders; for anti-bacterial zones: wet-molded pure Li compound (0.6 M (NH4)2HPO4 setting solution, 1.4 MPa), 6 mm dia. cylinder
Procedure: (§1) To prepare a TSB medium, 6 g Tryptone (Neogen, USA), 2 g Soytone (Soytone BD, USA) and 2 g NaCl (J.T. Baker, USA) were placed into a beaker filled with 400 ml of double distilled water and mixed with a stir bar. After total dissolution, the pH of the solution was adjusted to 7.3 and the solution was autoclaved (121° C., 1.2 kg/cm^2) for 30 min.
as §1, with “TSA” for “TSB”, “USA),” for “USA) and”, “Baker, USA) and 6 g Agar (Neogen,” for “Baker,”, “min. After being sterilized, the TSA medium was poured into a petri dish and allowed hardened. The TSA medium was then placed into an incubator at 30° C.” for “min.”
1 ml staphylococcus aureus (SA) containing TSB medium was transferred into a 15 ml centrifuge tube, wherein 10 ml phosphate buffered saline (PBS) was added and mixed gently. The mixture was centrifuged (KUBOTA 5922, Japan) at 3000 rpm for 10 minutes. The supernatant was removed and a SA pellet remained. 1 ml PBS was then added to suspend the pellet. 20 μl of the SA suspension and 180 μl PBS were transferred into each well of a 96 well plate. The absorbance was assayed using an ELISA reader (Sunrise, Tecan, Switzerland) at 600 nm to determine the bacterial concentration (cfu/ml) (200 μl of PBS was used as a negative control). Once determined, an appropriate volume of SA containing medium was transferred into a 1 micro centrifuge tube, wherein TSB was added to adjust bacterial concentration to 3.5×10^6 (cfu/ml). The tube was shaked for 15 seconds to allow thorough mixing. 100 μl of the SA containing medium was removed and dropped evenly across the agar plate. Once the broth was distributed evenly on agar plate and became almost dry, samples to be tested were placed on top of the agar and the petri dish was covered with a parafilm. The dish was placed in an incubator (LM-570R, Yih Der, Taiwan) at 37° C. for 24 hours. Bacteria colony formation was then observed and colony diameters measured.
After being loaded, the samples were placed on a table for 1 hour to become dry. Four samples were then placed into a 20 ml glass vial, wherein 8 ml Hanks' solution was added with a solid/liquid ratio of 0.1 g/ml. The glass vial was put into a water bath at 37° C. for 1, 2, 3, 5, and 7 days. The Hanks' solution was changed daily. Once having been soaked for desired periods of time, the samples were placed into a 50° C. oven for 24 hours, then stored in a zip lock bag.

S. aureus = test: Antimicrobial activity measurement (CFU count in TSB); format: cell-based
Procedure: Appropriate amount of UV-sterilized sample (either granule or cement) to be tested was put in a 12-well plate, wherein was added 1 ml Tryptone Soya Broth (TSB) with 10^6 live S. aureusbacteria in each well (concentration: 10^6 colony-forming units (CFU) per ml). S. aureusbacteria were cultured with the sample anaerobically at 37° C. One cultured without sample was considered as a positive control in each study group. The viability of the bacterial suspensions incubated with different samples was assessed using Tryptone Soya Agar (TSA) solid agar plates. After cultivation for 24 h, broth of each well was sequentially diluted and plated. The growth of bacteria was evaluated after cultivation on agar plates at 37° C. for 24 h. Then colony-forming units (CFU) were counted to calculate concentration using the equation,
[formula] and the antimicrobial activity is obtained by the following equation: Antimicrobial activity={[(Conc. of control group)−(conc. of experiment)]/(Conc. of control group)}×100%
Appropriate amounts of UV-sterilized Li3PO4 or Li2CO3 salt were each mixed with 1 ml TSB and tested for their antimicrobial activity values using the aforementioned method.
Appropriate amounts of “65/35” powder were mixed with appropriate amounts of Li3PO4 or Li2CO3 salt to form TTCP/DCPA/CSH/Li salt mixed powder with different Li salt ratios. The mixed powder was mixed with 0.6 M (NH4)2HPO4 solution to form a cement paste. Prior to being fully hardened, the paste was placed in a stainless steel mold under a pressure of 450 Kgf to squeeze a portion of the liquid out of the paste. After being hardened and removed from the mold, the hardened block was crushed and sieved into granules with a particle size range of about 0.4-1.2 mm. 0.2 g UV-sterilized thus-obtained granular sample was mixed with 1 ml TSB and tested for its antimicrobial activity using the aforementioned method.

Compound	antibacterial behavior [1]	24 h antimicrobial activity values (S. aureus; 0.06-0.12 g Li3PO4 salt in 1 ml TSB)	Antimicrobial activity (24 h) (S. aureus; Li salt amount/TSB 0.06 g/ml) [%]	Antimicrobial activity (24 h) (S. aureus; Li salt amount/TSB 0.08 g/ml) [%]	Antimicrobial activity (24 h) (S. aureus; Li salt amount/TSB 0.10 g/ml) [%]	Antimicrobial activity (24 h) (S. aureus; Li salt amount/TSB 0.12 g/ml) [%]	Antimicrobial activity (24 h) (S. aureus; Li salt amount/TSB 0.14 g/ml) [%]	anti-bacterial zones [1] [mm]	24 h antimicrobial activity value (S. aureus; all Li2CO3 salt samples (0.06-0.14 g/ml TSB)) [%]
[Li+].[Li+].[O-2] [Li2O, Lithium oxide]	high antibacterial behavior								
[F-].[Li+] [LiF, Lithium fluoride]	high antibacterial behavior								
O=P([O-])([O-])[O-].[Li+].[Li+].[Li+] [Li3PO4, Lithium phosphate]	high antibacterial behavior	97.4-98.9%	98.9	98.9	97.4	98.8	99.8		
O=C([O-])[O-].[Li+].[Li+] [Li2CO3, Lithium carbonate]	high antibacterial behavior		100	100	100	100	100	18	100
O=S(=O)([O-])[O-].[Li+].[Li+] [Li2SO4, Lithium sulfate]	high antibacterial behavior							22	
